Data set [1] deals with T1, human neutrophil elastase (Homo sapiens, UniProt P08246).
T1 construct: purchased Innovative Research, USA
T1 sequence (P08246 30-267): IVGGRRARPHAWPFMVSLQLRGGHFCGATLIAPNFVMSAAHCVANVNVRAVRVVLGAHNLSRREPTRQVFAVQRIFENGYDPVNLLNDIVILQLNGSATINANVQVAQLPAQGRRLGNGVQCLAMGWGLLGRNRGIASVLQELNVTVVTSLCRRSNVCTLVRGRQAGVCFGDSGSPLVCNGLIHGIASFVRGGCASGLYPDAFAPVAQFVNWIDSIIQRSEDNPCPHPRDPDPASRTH
In words: SAP hydrogel degradation by human neutrophil elastase. The settings on record: human neutrophil elastase 100 µg ml^-1 (86 units ml^-1) in PBS, 37°C, 5% CO2, 20 mg ml^-1 P11-4, 15 mg ml^-1 others, Qubit Protein Assay, mean ± SD, n = 3. Type of data set: in vitro ADME. As to the method: SAP hydrogel dissolution and degradation properties of the peptides in the presence and absence of neutrophilic elastase and microorganisms were measured by determining the peptide content of the supernatant. Therefore, SAPs were assembled in PBS at concentrations of 20 mg ml^−1 for P11-4 and 15 mg ml^−1 for P11-8, P11-13/14 and P11-28/29. The assay was performed in a 96-well plate with gel volumes of 100 µl well^−1. 86 units ml^−1 elastase (Innovative Research, USA) (100 µg ml^−1) were added to the assembled peptides in PBS solution. After 24 h incubation at 37°C and 5% CO2, 10 µl of the supernatant was sterilely removed after 24 and 168 h and measured indirectly by monomeric peptide concentration in the supernatant using the Qubit® Protein Assay (Q33211; Thermo Fisher; fluorescence at 485/590 nm) and transferred back for the remainder of the experiment allowing peptide hydrogel degradation measurement without disturbing the hydrogel to buffer fluid balance. The measurements are based on the fact that degraded peptides cause disassembly of the fibrils, as assembly rules are no longer given, resulting in an increase in monomeric SAP in solution. SAP concentrations were calculated based on respective peptide standard curves. For data analysis, SAP concentrations measured in the supernatant were calculated as a percentage of the specific starting concentrations of each peptide system. Statistical analysis was done using a two-way ANOVA followed by Sidak's multiple comparison test.

The conditions of data set [2]: cited from earlier work. The source says:
The topographical structure of SAP hydrogels is important for the three-dimensional arrangement of cells within scaffolds. Zhang et al. state that the fibres of SAP hydrogels resemble the nanometre scale of natural polymer networks and thus allow three-dimensional cell growth. […] (figure 1). […] Moreover, they observed the formation fibre entanglements with diameters of 30 nm. The phenomenon of fibril clustering was also reported by Zhang et al. for the peptides KFE8 and KLD12, characterized by a typical single fibre width of 7 nm and thicker diameters for the bundles of fibres.

Where a SMILES comes first, the peptide text is derived from it. [ ]: non-standard residue; d: D form. Orn = NCCC[C@H](N)C(=O)O

On to `CC(=O)N[C@@H](CCC(N)=O)C(=O)N[C@@H](CCC(N)=O)C(=O)N[C@@H](CCCNC(=N)N)C(=O)N[C@@H](Cc1ccccc1)C(=O)N[C@@H](CCCN)C(=O)N[C@@H](Cc1c[nH]c2ccccc12)C(=O)N[C@@H](CCCN)C(=O)N[C@@H](Cc1ccccc1)C(=O)N[C@@H](CCC(=O)O)C(=O)N[C@@H](CCC(N)=O)C(=O)N[C@@H](CCC(N)=O)C(N)=O` [P11-8, CH3CO-QQRFOWOFEQQ-NH2] (Ac-QQRF[Orn]W[Orn]FEQQ-NH2), for which the figures for the “relative peptide amount in supernatant (% of peptide starting concentration)” value in data set [1] (1 d) and in data set [1] (7 d) were 10.4± 3.9% and 10.4± 1.3%, respectively. As to KLD12 [reference compound], in data set [2] (literature), the “typical single fibre width” value is recorded as 7 nm. Take RADA16 [reference compound]: the fibre diameter result in data set [2] (literature value) is “approximately 10 nm”.
